molecular target: T1, mTor (Homo sapiens, UniProt P42345); assay: mTor kinase inhibition, % activity at 0.03 μM (kinases panel screening); type: biochemical; details: 0.03 μM compound
T1 construct: purchased Millipore/Merck KGA of Europe (panel screening service)
Source text: In vitro kinase inhibition activities included Pi3k and mTor activities can be tested with Millipore/Merck KGA of Europe in their kinases panel screening. Animal antitumor activity testing can be conducted by various cancer xenograft models for a compound of formula I. […]

Row | Compound | mTor % activity @0.03 μM
1 | N-(5-{16-[4-(1-cyano-1-methylethyl)phenyl]-8,11,13,14,16-pentaazatetracyclo[8.6.0.0^2,^7.0^11,^1^5]-hexadeca-1(10), 2,4,6,8,12,14-heptaen-4-yl)}pyridin-2-yl)-2-(4-hydroxypiperidin-1-yl)acetamide | 17%
2 | CC(=O)Nc1ccc(-c2ccc3ncc4c(c3c2)n(-c2ccc(C(C)(C)C#N)cc2)c2nnc(C)n42)cn1 [N-(5-{16-[4-(1-cyano-1-methylethyl)phenyl]-12-methyl-8,11,13,14,16-pentaazatetracyclo-[8.6.0.0^2,^7.0^11,^1^5]hexadeca-1(10),2,4,6,8,12,14-heptaen-4-yl}pyridin-2-yl)acetamide] | 74%
3 | CC(=O)Nc1ccc(-c2ccc3ncc4c(c3c2)n(-c2ccc(C(C)(C)C)cc2)c2nncn42)cn1 [N-{5-[16-(4-tert-butylphenyl)-8,11,13,14,16-pentaazatetracyclo[8.6.0.0^2,^7.0^11,^1^5]hexadeca-1(10),2,4,6,8,12,14-heptaen-4-yl]pyridin-2-yl}acetamide] | −6%
4 | 5-[16-(4-tert-butylphenyl)-12-ethyl-8,11,13,14,16-pentaazatetracyclo[8.6.0.0^2,^7.0^11,^1^5]hexadeca-1(10),2,4,6,8,12,14-heptaen-4-yl]-N-methylpyridin-2-amine | 51%
5 | N-(5-{16-[4-(1-cyano-1-methylethyl)phenyl]-8,11,13,14,16-pentaazatetracyclo[8.6.0.0^2,^7.0^11,^1^5]-hexadeca-1(10), 2,4,6,8,12,14-heptaen-4-yl)}pyridin-2-yl)-2-(thian-4-ylamino)acetamide | 103%
6 | 5-[16-(4-tert-butylphenyl)-12-ethyl-8,11,13,14,16-pentaazatetracyclo[8.6.0.0^2,^7.0^11,^1^5]hexadeca-1(10),2,4,6,8,12,14-heptaen-4-yl]-N-[2-(pyrrolidin-1-yl)ethyl]pyridin-2-amine | 84%
7 | CC(C)(C)c1ccc(-n2c3c4cc(-c5cnc6ccccc6c5)ccc4ncc3n3cnnc23)cc1 [3-quinoline; H; CH3, CH3; CH3, 16-(4-tert-butylphenyl)-4-(quinolin-3-yl)-8,11,13,14,16-pentaazatetracyclo[8.6.0.0^2,^7.0^11,^1^5]-hexadeca-1(10), 2,4,6,8,12,14-heptaene] | 22%
8 | N-(5-{16-[4-(1-cyano-1-methylethyl)phenyl]-8,11,13,14,16-pentaazatetracyclo[8.6.0.0^2,^7.0^11,^1^5]-hexadeca-1(10), 2,4,6,8,12,14-heptaen-4-yl)}pyridin-2-yl)-2-(morpholin-4-yl)acetamide | 72%
9 | Cc1nnc2n(-c3ccc(C(C)(C)C)cc3)c3c4cc(-c5ccc(N)nc5)ccc4ncc3n12 [5-pyridin-2-amine; CH3; CH3, CH3; CH3, 5-[16-(4-tert-butylphenyl)-12-methyl-8,11,13,14,16-pentaazatetracyclo[8.6.0.0^2,^7.0^11,^1^5]-hexadeca-1(10), 2,4,6,8,12,14-heptaen-4-yl]pyridin-2-amine] | 34%
10 | C#CC(C)(C)c1ccc(-n2c3c4cc(-c5ccc(OC)nc5)ccc4ncc3n3c(CC)nnc23)cc1 [12-ethyl-4-(6-methoxypyridin-3-yl)-16-[4-(2-methylbut-3-yn-2-yl)phenyl]-8,11,13,14,16-pentaazatetracyclo[8.6.0.0^2,^7.0^11,^1^5]hexadeca-1(10),2,4,6,8,12,14-heptaene] | 69%
11 | Cc1nnc2n(-c3ccc(C(C)(C)C#N)cc3)c3c4cc(-c5cnc6[nH]ccc6c5)ccc4ncc3n12 [2-methyl-2-[4-(12-methyl-4-{1H-pyrrolo[2,3-b]pyridin-5-yl}-8,11,13,14,16-pentaazatetra-cyclo[8.6.0.0^2,^7.0^11,^1^5]hexadeca-1(10),2,4,6,8,12,14-heptaen-16-yl)phenyl]propanenitrile] | 15%
12 | CCc1nnc2n(-c3ccc(C(C)(C)C#N)cc3)c3c4cc(-c5cnc6[nH]ccc6c5)ccc4ncc3n12 [2-[4-(12-ethyl-4-{(1H-pyrrolo[2,3-b]pyridin-5-yl}-8,11,13,14,16-pentaazatetracyclo-[8.6.0.0^2,^7.0^11,^1^5]hexadec-1(10),2,4,6,8,12,14-heptaen-16-yl)phenyl]-2-methylpropanenitrile] | 29%
13 | 5-[16-(4-tert-butylphenyl)-12-ethyl-8,11,13,14,16-pentaazatetracyclo[8.6.0.0^2,^7.0^11,^1^5]hexadeca-1(10),2,4,6,8,12,14-heptaen-4-yl]-N-[2-(morpholin-4-yl)ethyl]pyridin-2-amine | 102%
14 | CC(=O)Nc1ccc(-c2ccc3ncc4c(c3c2)n(-c2ccc(C(C)(C)C#N)cc2)c2nncn42)cn1 [N-(5-{16-[4-(1-cyano-1-methylethyl)phenyl]-8,11,13,14,16-pentaazatetracyclo-[8.6.0.0^2,^7.0^11,^1^5]hexadeca-1(10),2,4,6,8,12,14-heptaen-4-yl}pyridin-2-yl)acetamide] | −10%
15 | Cc1nnc2n(-c3ccc(C(C)(C)C)cc3)c3c4cc(-c5cccnc5)ccc4ncc3n12 [3-pyridine; CH3; CH3, CH3; CH3, 16-(4-tert-butylphenyl)-12-methyl-4-(pyridin-3-yl)-8,11,13,14,16-pentaazatetracyclo-[8.6.0.0^2,^7.0^11,^1^5]hexadec-1(10),2,4,6,8,12,14-heptaene] | 88%
16 | C#CC(C)(C)c1ccc(-n2c3c4cc(-c5ccc(OC)nc5)ccc4ncc3n3c(C)nnc23)cc1 [2-methoxy-5-pyridine; CH3; CH3, CH3; CN, 4-(6-methoxypyridin-3-yl)-12-methyl-16-[4-(2-methylbut-3-yn-2-yl)phenyl]8,11,13,14,16-pentaazatetracyclo[8.6.0.0^2,^7.0^11,^1^5]hexadeca-1(10),2,4,6,8,12,14-heptaene] | 98%
17 | CC(C)(C)c1ccc(-n2c3c4cc(-c5cccnc5)ccc4ncc3n3cnnc23)cc1 [3-pyridine; H; CH3, CH3; CH3, 16-(4-tert-butylphenyl)-4-(pyridin-3-yl)-8,11,13,14,16-pentaazatetracyclo[8.6.0.0^2,^7.0^11,^1^5]-hexadeca-1(10), 2,4,6,8,12,14-heptaene] | −4%
18 | N-(5-{16-[4-(1-cyano-1-methylethyl)phenyl]-8,11,13,14,16-pentaazatetracyclo[8.6.0.0^2,^7.0^11,^1^5]-hexadeca-1(10),2,4,6,8,12,14-heptaen-4-yl)}pyridin-2-yl)-2-(pyrrolidin-1-yl)acetamide | −2%
19 | Cc1nnc2n(-c3ccc(C(C)(C)C)cc3)c3c4cc(-c5cnc6[nH]ccc6c5)ccc4ncc3n12 [16-(4-tert-butylphenyl)-12-methyl-4-{1H-pyrrolo[2,3-b]pyridin-5-yl}-8,11,13,14,16-pentaaza-tetracyclo[8.6.0.0^2,^7.0^11,^1^5]hexadeca-1(10), 2,4,6,8,12,14-heptaene] | 54%
20 | CC(C)(C#N)c1ccc(-n2c3c4cc(-c5cncnc5)ccc4ncc3n3cnnc23)cc1 [5-pyrimidine; H; CH3, CH3; CN, 2-methyl-2-{4-[4-(pyrimidin-5-yl)-8,11,13,14,16-pentaazatetracyclo[8.6.0.0^2,^7.0^11,^1^5]hexadeca-1(10),2,4,6,8,12,14-heptaen-16-yl]phenyl}propanenitrile] | 64%
21 | N-{5-[16-(4-tert-butylphenyl)-12-ethyl-8,11,13,14,16-pentaazatetracyclo[8.6.0.0^2,^7.0^11,^1^5]-hexadeca-1(10), 2,4,6,8,12,14-heptaen-4-yl]pyridin-2-yl}-2-(pyrrolidin-1-yl)acetamide | 91%
22 | CCc1nnc2n(-c3ccc(C(C)(C)C#N)cc3)c3c4cc(-c5cncnc5)ccc4ncc3n12 [5-pyrimidine; CH2CH3; CH3, CH3; CN, 2-{4-[12-ethyl-4-(pyrimidin-5-yl)-8,11,13,14,16-pentaazatetracyclo[8.6.0.0^2,^7.0^11,^1^5]-hexadeca-1(10),2,4,6,8,12,14-heptaen-16-yl]phenyl}-2-methylpropanenitrile] | 94%
23 | N-{5-[16-(4-tert-butylphenyl)-12-ethyl-8,11,13,14,16-pentaazatetracyclo[8.6.0.0^2,^7.0^11,^1^5]-hexadeca-1(10), 2,4,6,8,12,14-heptaen-4-yl]pyridin-2-yl}-2-(methylamino)acetamide | 40%
24 | N-{5-[16-(4-tert-butylphenyl)-12-ethyl-8,11,13,14,16-pentaazatetracyclo[8.6.0.0^2,^7.0^11,^1^5]-hexadeca-(10),2,4,6,8,12,14-heptaen-4-yl]pyridin-2-yl}-2-(morpholin-4-yl)acetamide | 92%
25 | C#CC(C)(C)c1ccc(-n2c3c4cc(-c5ccc(N)nc5)ccc4ncc3n3c(CC)nnc23)cc1 [5-pyridin-2-amine; CH2CH3; CH3, CH3; CN, 5-{12-ethyl-16-[4-(2-methylbut-3-yn-2-yl)phenyl]-8,11,13,14,16-pentaazatetracyclo-[8.6.0.0^2,^7.0^11,^1^5]hexadeca-1(10),2,4,6,8,12,14-heptaen-4-yl}pyridin-2-amine] | 21%
26 | CC(C)(C)c1ccc(-n2c3c4cc(-c5cnc6[nH]ccc6c5)ccc4ncc3n3cnnc23)cc1 [16-(4-tert-butylphenyl)-4-{1H-pyrrolo[2,3-b]pyridin-5-yl}-8,11,13,14,16-pentaazatetracyclo-[8.6.0.0^2,^7.0^11,^1^5]hexadeca-1(10), 2,4,6,8,12,14-heptaene] | −15%
